pIC50: −log10 of the molar value. Where two headings read alike, the source gives them in different places.
Experiments:
KRAS^G12D in GP5d cells = biological target: T1, KRAS^G12D in GP5d cells (Homo sapiens, UniProt P01116, G12D); experiment: Endogenous KRAS degradation by Western blot in GP5d cells; type: cell-based
T1 construct: comparison of the degradative effect on endogenous KRAS; host or cells: GP5d

[1] = biological target: T2, KRAS^G12R in Cal-62 cells (Homo sapiens, UniProt P01116, G12R); experiment: Endogenous KRAS degradation by Western blot in Cal-62 cells; type: cell-based; conditions: Cal-62 (G12R)
T2 construct: Potent degradation of endogenous KRAS^G12R was achieved by ACBI4 in the Cal-62 cell line; host or cells: Cal-62

[2] = biological target: T3, KRAS^Q61K in Calu-6 cells (Homo sapiens, UniProt P01116, Q61K); experiment: Endogenous KRAS degradation by Western blot in Calu-6 cells; type: cell-based; conditions: Calu-6 (Q61K)
T3 construct: host or cells: Calu-6

[3] = biological target: T4, HiBiT-KRAS^G12D in GP5d cells (Homo sapiens, UniProt P01116, G12D); experiment: HiBiT degradation assay, HiBiT-KRAS^G12D GP5d cells; type: cell-based; conditions: Gp5D (HiBit-G12D)
T4 construct: host or cells: GP5d HiBiT KRAS G12D

[4] = biological target: T5, HiBiT-KRAS^G12R in Cal-62 cells (Homo sapiens, UniProt P01116, G12R); experiment: HiBiT degradation assay, HiBiT-KRAS^G12R Cal-62 cells; type: cell-based; conditions: Cal-62 (HiBitG12R)
T5 construct: generated a HiBiT-KRAS^G12R Cal-62 knock-in cell line using the CRISPR Cas9 technology; endogenous in cells; host or cells: Cal-62 HiBiT KRAS G12R (in-house CRISPR knock-in)
Description: (Gibco) with 10% FBS in a humidiﬁed cell incubator at 37 °C and 5% CO2.
Plasmids pSpCas9 BB-2A-GFP (PX458) containing gRNA, Cas9 and GFP sequences and […] plasmid containing ssDNA donor template were purchased from Genscript. Cal-62 cells were plated at 5x10^5 cells in a 6-well plate and left to adhere overnight. The next day, the transfection plasmids (0.5 µg of each gRNA plasmid and 0.5 µg of donor template) were diluted in Opti-MEM, combined with Lipofectamine solution in Opti-mem according to the manufacturer’s protocol and incubated for 20 min at RT. The mixture was added to the cells and incubated for 24 h. The next day the media was exchanged, and the cells were left to incubate for another 24 h. GFP positive cells were single-cell sorted into 96-well plates using ﬂuorescence-activated cell sorting (FACS) at the Flow Cytometry and Cell Sorting Facility (University of Dundee). Sorted cells were left to grow in conditioned media supplemented with 20% FBS for 3 weeks. Formed colonies were tested for the expression of HiBiT KRAS using the Nano-Glo® HiBiT Lytic system (Promega). The positive clones were additionally tested for insertion of the HiBiT tag by western blotting for KRAS (mouse anti-KRAS, LsBio) and HiBiT (mouse anti-HiBiT, Promega) and the insert was further conﬁrmed by Sanger sequencing. […]
gRNA1: 5’ […] 3’, gRNA2: 5’ […] 3’, gRNA 3: 5’ […]
template DNA: 5’ caatccagctt tatttgacac tcattctctc aactctcatc tgattcttac tgttaatatt tatccaagag aactactgcc atgatgcttt aaaagttttt ctgtagctgt tgcatattga cttctaacac ttagaggtgg gggtccacta ggaaaactgt aacaataaga gtggagatag ctgtcagcaa cttttgtgag ggtgtgctac agggtgtaga gcactgtgaa gtctctacat gagtgaagtc atgatatgat cctttgagag cctttagccg ccgcagaaca gcagtctggc tatttagata gaacaacttg attttaagat aaaagaactg tctatgtagc atttatgcat ttttcttaag cgtcgatgga ggagtttgta aatgaagtac agttcattac gatacacgtc tgcagtcaac tggaattttc atgattgaat tttgtaaggt attttgaaat aatttttcat ataaaggtga gtttgtatta aaaggtactg gtggagtatt tgatagtgta ttaaccttat gtgtgacatg ttctaatata gtcacatttt cattattttt attataaggc ctgctgaaa […]
atg[…]act gaGtaCaaGctCgtAgtagttggag ctCgtggc gta ggc aag agt gcc ttA acAatCcaActaattcagaatcat tttgtggacg aatatgatcc aacaatagag gtaaatcttg ttttaatatg catattactg gtgcaggacc attctttgat acagataaag gtttctctga ccattttcat gagtacttat tacaagataa ttatgctgaa agttaagtta tctgaaatgt accttgggtt tcaagttata tgtaaccatt aatatgggaa ctttactttc cttgggagta tgtcagggtc catgatgttc actctctgtg cattttgatt ggaagtgtat ttcagagttt cgtgagaggg tagaaatttg tatcctatct ggacctaaaa gacaatcttt ttattgtaac ttttattttt atgggtttct tggtattgtg acatcatatg taaaggttag atttaattgt actagtgaaa tataattgtt tgatggttga tttttttaaa cttcatcagc agtattttcc tatcttcttc tcaacattag agaacctaca actaccggat aaattttaca aaatgaatta tttgcctaag gtgtggttta tataaaggta ctattaccaa ctttaccttt gctttgttgt catttttaaa tttactcaag gaaatactag gatttaaaaa aaaattcctt 3’
Degradation via Detection of Split Nanoluciferase (HiBiT)
To assess PROTAC-mediated degradation of HiBiT-tagged KRAS constructs, cells were seeded at […]
further incubated at 37 °C for 4 and 24 h. Following incubation, 20 µL per well of Promega Nano-Glo® HiBiT lytic detection reagent mix (Promega Nano-Glo® HiBiT Lytic Detection System […]
plotted as percent of DMSO control.

[5] = biological target: T5, HiBiT-KRAS^G12R in Cal-62 cells; experiment: Kinetic degradation (live mode), Cal-62 HiBiT KRAS^G12R cells; type: cell-based; conditions: Cal62-HiBit (G12R)
Cal-62 cells [6] = experiment: CellTiter-Glo anti-proliferation, Cal-62; type: cell-based, human; conditions: Homo sapiens, 72 h; Cal-62 (G12R); read-out: CTG 72h Ic50
Calu-6 cells = experiment: CellTiter-Glo anti-proliferation, Calu-6; type: cell-based, human; conditions: Calu-6 (Q61K)
Cal-62 cells [7] = experiment: Whole cell proteomics MS analysis of Cal-62 cells; type: cell-based, human; conditions: 1 µM, 6 h, FDR<0.05
[8] = test system: HiBiT-tagged KRAS mutants in GP5d cells; experiment: Degradation of retrovirally transduced HiBiT-tagged KRAS mutants in GP5d cells; type: cell-based, human; conditions: 18 h
HRAS in Cal-62 cells = HRAS in Cal-62 cells (Homo sapiens, UniProt P01112); experiment: Western blot of HRAS levels in Cal-62 cells
Sequence of HRAS in Cal-62 cells (P01112 whole entry): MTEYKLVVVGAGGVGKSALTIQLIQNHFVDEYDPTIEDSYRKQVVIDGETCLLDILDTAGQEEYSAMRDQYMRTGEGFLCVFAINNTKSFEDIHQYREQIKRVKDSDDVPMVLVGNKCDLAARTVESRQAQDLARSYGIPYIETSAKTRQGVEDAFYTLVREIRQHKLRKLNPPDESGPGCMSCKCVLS

NRAS in Cal-62 cells = NRAS in Cal-62 cells (Homo sapiens, UniProt P01111); experiment: Western blot of NRAS levels in Cal-62 cells
Sequence of NRAS in Cal-62 cells (P01111 whole entry): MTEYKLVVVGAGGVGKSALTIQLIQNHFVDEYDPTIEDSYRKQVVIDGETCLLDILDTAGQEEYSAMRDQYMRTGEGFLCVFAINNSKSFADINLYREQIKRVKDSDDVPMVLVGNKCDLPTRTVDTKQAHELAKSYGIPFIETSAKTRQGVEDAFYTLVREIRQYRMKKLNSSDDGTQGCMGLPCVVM

SMILES: CC(C)C(C(=O)N1CC(O)CC1C(=O)NCc1ccc2cnn(C)c2c1)n1nnc2c1CCC(CCCN1CCCN(c3nccc(-c4noc(C5(C)CCCc6sc(N)c(C#N)c65)n4)n3)C(C)C1)C2 (centres unmarked) [ACBI4]
- Dmax (KRAS^G12D in GP5d cells; 4 h, read-out: DMax 4h): 96.5%
- DC50 (KRAS^G12D in GP5d cells; 4 h, read-out: Dc50 4h): 7 nM
- Dmax (KRAS^G12D in GP5d cells; 18 h, read-out: DMax 18h): 99%
- DC50 (KRAS^G12D in GP5d cells; 18 h, read-out: Dc50 18h): 7 nM
- Dmax ([1]; 4 h, read-out: DMax 4h): 88%
- DC50 ([1]; 4 h, read-out: Dc50 4h): 382 nM
- Dmax ([1]; 18 h, read-out: DMax 18h): 93%
- DC50 ([1]; 18 h, read-out: Dc50 18h): 162 nM
- Dmax ([2]; 4 h, read-out: DMax 4h): 34%
- DC50 ([2]; 4 h, read-out: Dc50 4h): 274 nM
- Dmax ([2]; 18 h, read-out: DMax 18h): 68%
- DC50 ([2]; 18 h, read-out: Dc50 18h): 157 nM
- Dmax ([3]; 4 h, read-out: DMax 4h): 84%
- DC50 ([3]; 4 h, read-out: Dc50 4h): 9 nM
- Dmax ([3]; 24 h, read-out: DMax 24h): 93%
- DC50 ([3]; 24 h, read-out: Dc50 24h): 2 nM
- Dmax ([4]; 4 h, read-out: DMax 4h): 80%
- DC50 ([4]; 4 h, read-out: Dc50 4h): 80 nM
- Dmax ([4]; 24 h, read-out: DMax 24h): 87%
- DC50 ([4]; 24 h, read-out: Dc50 24h): 205 nM
- 1/K (Tau) [5]: 0.689 µM
- Plateau (degradation rate) [5]: 0.2774 min⁻¹
- Plateu/ Tau [5]: 6708 M⁻¹ s⁻¹
- pIC50 (Cal-62 cells [6]): 6.76
- CTG 72h Ic50 (Calu-6 cells): unstable
- Log2 Difference CDKN1C (Cal-62 cells [7]; ACBI4/DMSO): 1.09
- Log2 Difference FOSL1 (Cal-62 cells [7]; ACBI4/DMSO): -0.93
- Log2 Difference G0S2 (Cal-62 cells [7]; ACBI4/DMSO): -1.35
- Log2 Difference KRAS (Cal-62 cells [7]; ACBI4/DMSO): -0.94
- Log2 Difference NRAS (Cal-62 cells [7]; ACBI4/DMSO): -1.86
- Log2 Difference RHOB (Cal-62 cells [7]; ACBI4/DMSO): 2.12
- Log2 Difference CDKN1C (Cal-62 cells [7]; ACBI4/Neg Ctr): 1.24
- Log2 Difference FOSL1 (Cal-62 cells [7]; ACBI4/Neg Ctr): -0.7
- Log2 Difference G0S2 (Cal-62 cells [7]; ACBI4/Neg Ctr): -1.11
- Log2 Difference KRAS (Cal-62 cells [7]; ACBI4/Neg Ctr): -0.79
- Log2 Difference NRAS (Cal-62 cells [7]; ACBI4/Neg Ctr): -1.48
- Log2 Difference PLAU (Cal-62 cells [7]; ACBI4/Neg Ctr): -0.73
- Log2 Difference RHOB (Cal-62 cells [7]; ACBI4/Neg Ctr): 2.07
- Log2 Difference TSPYL4 (Cal-62 cells [7]; ACBI4/Neg Ctr): 0.96
- degradation of HiBiT-tagged KRAS mutant panel (in words) [8]: induce the degradation of all KRAS alleles
- Dmax (HRAS in Cal-62 cells; CAL-62, read-out: HRAS Dmax): 72%
- window of HRAS degradation over KRAS degradation (HRAS in Cal-62 cells; Cal-62, DC50 637 nM vs 382 nM): ca. 2 fold
- DC50 (HRAS in Cal-62 cells; read-out: HRAS DC50, Cal-62 cells, 4 h, Western blot): 637 nM
- NRAS degradation (NRAS in Cal-62 cells): degradation of NRAS only at very high concentrations
